Counter-ions that a name gives are not always drawn.
What was measured:
[1] = target: T1, HCV genotype 1b (BK) NS3 modified enzyme with a R155K mutation (Hepatitis C virus genotype 1b, UniProt P26663, R1181K); experiment: HCV NS3 protease time-resolved fluorescence (TRF) assay, genotype 1b R155K; format: biochemical; conditions: Ki 1b R155K
T1 construct: HCV genotype 1b (BK) NS3 modified enzyme
Procedure, shortened: (§1)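 Assay buffer: 50 mM HEPES pH 7.5, 150 mM NaCl, 0.1% PEG 8000, 0.15% Triton X-100. Ten-minute enzyme–inhibitor preincubation; substrate at 25 nM final; 6 h reaction, room temperature; signal/background set at 5-20 by enzyme amount.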

[2] = target: HCV NS3 protease genotype 3a (3A-1) (Hepatitis C virus genotype 3a, UniProt Q81258); experiment: HCV NS3 protease time-resolved fluorescence (TRF) assay, genotype 3a; format: biochemical; conditions: Ki 3a
Procedure, shortened: as §1

[3] = genotype 1b (BK) NS3 R155K, single value
[4] = first of two values printed in the cell (not explained)
[5] = second of two values printed in the cell (not explained)

SMILES | Ki [1, 3] [nM] | Ki [2] [nM] | Ki [1, 4] [nM] | Ki [1, 5] [nM]
C=C[C@@H]1C[C@]1(NC(=O)[C@@H]1C[C@@H]2CN1C(=O)[C@H](C1CCCC1)NC(=O)O[C@@H]1CCC[C@H]1CC/C=C/Cc1c(nc3ccccc3c1OCCOC)O2)C(=O)NS(=O)(=O)C1CC1 [Example 46, (3aR,7S,10S,12R,21E,24aS)-7-cyclopentyl-N-{(1R,2S)-1-[(cyclopropylsulfonyl)carbamoyl]-2-ethenylcyclopropyl}-19-(2-methoxyethoxy)-5,8-dioxo-1,2,3,3a,5,6,7,8,11,12,20,23,24,24a-tetradecahydro-10H-9,12-methanocyclopenta[18,19][1,10,3,6] dioxadiazacyclononadecino[11,12-b] quinoline-10-carboxamide] | 0.15 | 4 |  | 
C=C[C@@H]1C[C@]1(NC(=O)[C@@H]1C[C@@H]2CN1C(=O)[C@H](C1CCCC1)NC(=O)O[C@@H]1CCC[C@H]1CC/C=C/Cc1c(nc3ccccc3c1OCCCOP(=O)(O)O)O2)C(=O)NS(=O)(=O)C1CC1 [Example 95, 3-{[(3aR,7S,10S,12R,21E,24aS)-7-cyclopentyl-10-({(1R,2S)-1-[(cyclopropylsulfonyl)carbamoyl]-2-ethenylcyclopropyl}carbamoyl)-5,8-dioxo-1,2,3,3a,5,6,7,8,11,12,20,23,24,24a-tetradecahydro-10H-9,12-methanocyclopenta[18,19][1,10,3,6]dioxadiazacyclononadecino[11,12-b]quinolin-19-yl]oxy}propyl dihydrogen phosphate] | 0.18 | 1 |  | 
C=C[C@@H]1C[C@]1(NC(=O)[C@@H]1C[C@@H]2CN1C(=O)[C@H](C(C)(C)C)NC(=O)O[C@@H]1C[C@H]1CCCCCc1c(nc3ccccc3c1OCCCNC1CCC1)O2)C(=O)NS(=O)(=O)C1(C)CC1 [Example 180, (1aR,5S,8S,10R,22aR)-5-tert-butyl-17-[3-(cyclobutylamino)propoxy]-N-[(1R,2S)-2-ethenyl-1-{[(1-methylcyclopropyl)sulfonyl]carbamoyl}cyclopropyl]-3,6-dioxo-1,1a,3,4,5,6,9,10, 18,19,20,21,22,22a-tetradeca hydro-8H-7,10-methanocyclopropa[18,19][1,10,3,6] dioxadiazacyclononadecino[11,12-b] quinoline-8-carboxamide] | 0.037 | 0.58 |  | 
C=C[C@@H]1C[C@]1(NC(=O)[C@@H]1C[C@@H]2CN1C(=O)[C@H](C(C)(C)C)NC(=O)O[C@@H]1C[C@H]1CCCCCc1c(nc3ccccc3c1OCCCN1CCCCC1)O2)C(=O)NS(=O)(=O)C1(C)CC1 [Example 115, (1aR,5S,8S,10R,22aR)-5-tert-butyl-N-[(1R,2S)-2-ethenyl-1-{[(1-methylcyclopropyl)sulfonyl]carbamoyl}cyclopropyl]-3,6-dioxo-17-[3-(piperidin-1-yl)propoxy]-1,1a,3,4,5,6,9,10,18,19,20,21,22,22a-tetradeca hydro-8H-7,10-methano cyclopropa[18,19][1,10,3,6] dioxadiazacyclononadecino [11,12-b]quinoline-8-carboxamide] | 0.057 | 0.25 |  | 
C=C[C@@H]1C[C@]1(NC(=O)[C@@H]1C[C@@H]2CN1C(=O)[C@H](C1CCCC1)NC(=O)O[C@@H]1CCC[C@H]1CC/C=C/Cc1c(nc3ccccc3c1OCC(F)(F)CO)O2)C(=O)NS(=O)(=O)C1CC1 [Example 73, (3aR,7S,10S,12R,21E,24aS)-7-cyclopentyl-N-{(1R,2S)-1-[(cyclopropylsulfonyl)carbamoyl]-2-ethenylcyclopropyl}-19-(2,2-difluoro-3-hydroxypropoxy)-5,8-dioxo-1,2,3,3a,5,6,7,8,11,12,20,23,24,24a-tetradecahydro-10H-9,12-methanocyclopenta[18,19][1,10,3,6]dioxadiazacyclononadecino[11,12-b]quinoline-10-carboxamide] | 0.14 | 2.5 |  | 
C=C[C@@H]1C[C@]1(NC(=O)[C@@H]1C[C@@H]2CN1C(=O)[C@H](C(C)(C)C)NC(=O)O[C@@H]1CCC[C@H]1CCCCCc1c(nc3ccccc3c1O)O2)C(=O)NS(=O)(=O)C1(C(=C)C)CC1 [Example 37, (3aR,7S,10S,12R,24aR)-7-tert-butyl-N-[(1R, 2S)-2-ethenyl-1-({[1-(prop-1-en-2-yl)cyclopropyl]sulfonyl}carbamoyl)cyclopropyl]-19-hydroxy-5,8-dioxo-1,2,3,3a,5,6,7,8,11,12,20, 21,22,23,24,24a-hexadecahydro-10H-9,12-methanocyclopenta[18,19][1,10,3,6] dioxadiazacyclononadecino[11,12-b]quinoline-10-carboxamide] | 0.16 | 6 |  | 
C=C[C@@H]1C[C@]1(NC(=O)[C@@H]1C[C@@H]2CN1C(=O)[C@H](C(C)(C)C)NC(=O)O[C@@H]1CCC[C@H]1CCCCCc1c(nc3ccccc3c1OCCN1CCOCC1)O2)C(=O)NS(=O)(=O)N1CCCC1 [Example 109, (3aR,7S,10S,12R,24aR)-7-tert-butyl-N-{(1R,2S)-2-ethenyl-1-[(pyrrolidin-1-ylsulfonyl)carbamoyl]cyclopropyl}-19-[2-(morpholin-4-yl)ethoxy]-5,8-dioxo-1,2,3,3a,5,6,7,8,11,12,20,21,22,23,24,24a-hexadecahydro-10H-9,12-methano cyclopenta[18,19][1,10,3,6] dioxadiazacyclononadecino [11,12-b]quinoline-10-carboxamide] | 4.1 | 122 |  | 
C=C[C@@H]1CC1(NC(=O)[C@@H]1C[C@@H]2CN1C(=O)[C@H](C(C)(C)C)NC(=O)O[C@@H]1C[C@H]1CCCCCc1c(nc3ccccc3c1OC1C3CNCC1COC3)O2)C(=O)NS(=O)(=O)C1(C)CC1 (single isomer, unassigned) [Example 259, trifluoroacetate] |  | 7.4 | 0.03 | 0.35
C=CC1C[C@]1(NC(=O)[C@@H]1C[C@@H]2CN1C(=O)[C@H](C1CCCC1)NC(=O)O[C@@H]1CCC[C@H]1CC/C=C/Cc1c(nc3ccccc3c1OCCCN(C)C)O2)C(=O)NS(=O)(=O)C1CC1 (stereo partly drawn) [Example 77, (3aR,7S,10S,12R,21E,24aS)-7-cyclo pentyl-N-{(1R,2S)-1-[(cyclopropylsulfonyl)carbamoyl]-2-ethenylcyclopropyl}-19-[3-(dimethylamino)propoxy]-5,8-dioxo-1,2,3,3a,5,6,7,8,11,12,20,23,24, 24a-tetradecahydro-10H-9,12-methano cyclopenta[18,19][1,10,3,6] dioxadiazacyclo-nonadecino[11,12-b]quinoline-10-carboxamide] | 0.09 | 0.72 |  | 
C=C[C@@H]1C[C@]1(NC(=O)[C@@H]1C[C@@H]2CN1C(=O)[C@H](C(C)(C)C)NC(=O)O[C@@H]1C[C@H]1CCCCCc1c(nc3ccccc3c1OC1CCN(CC(F)(F)F)CC1)O2)C(=O)NS(=O)(=O)C1(C)CC1 [Example 234, (1aR,5S,8S,10R,22aR)-5-tert-butyl-N-[(1R,2S)-2-ethenyl-1-{[(1-methylcyclopropyl)sulfonyl]carbamoyl}cyclopropyl]-3,6-dioxo-17-{[1-(2,2,2-trifluoroethyl)piperidin-4-yl]oxy}-1,1a,3,4,5,6,9,10,18,19,20,21,22,22a-tetradecahydro-8H-7,10-methanocyclopropa[18,19][1,10,3,6]dioxadiazacyclononadecino[11,12-b]quinoline-8-carboxamide] |  | 29.1 | 0.08 | 1.38
C=C[C@@H]1C[C@]1(NC(=O)[C@@H]1C[C@@H]2CN1C(=O)[C@H](C(C)(C)C)NC(=O)O[C@@H]1CCC[C@H]1CC/C=C/Cc1c(nc3ccccc3c1OCCn1cccc1)O2)C(=O)NS(=O)(=O)C1CC1 [Example 52, (3aR,7S,10S,12R,21E,24aS)-7-tert-butyl-N-{(1R,2S)-1-[(cyclopropylsulfonyl)carbamoyl]-2-ethenylcyclopropyl}-5,8-dioxo-19-[2-(1H-pyrrol-1-yl)ethoxy]-1,2,3,3a,5,6,7,8,11,12,20, 23,24,24a-tetradeca hydro-10H-9,12-methano cyclopenta[18,19][1,10,3,6]dioxadiazacyclo nonadecino[11,12-b]quinoline-10-carboxamide] | 1.1 | 10 |  | 
C=C[C@@H]1C[C@]1(NC(=O)[C@@H]1C[C@@H]2CN1C(=O)[C@H](C(C)(C)C)NC(=O)O[C@@H]1C[C@H]1CCCCCc1c(nc3ccccc3c1OCCCNC1CCOCC1)O2)C(=O)NS(=O)(=O)C1(C)CC1 [Example 181, (1aR,5S,8S,10R,22aR)-5-tert-butyl-N-[(1R,2S)-2-ethenyl-1-{[(1-methylcyclopropyl)sulfonyl]carbamoyl}cyclopropyl]-3,6-dioxo-17-[3-(tetrahydro-2H-pyran-4-ylamino)propoxy]-1,1a,3,4,5,6,9,10,18, 19,20,21,22,22a-tetradecahydro-8H-7,10-methanocyclopropa[18,19][1,10,3,6] dioxadiazacyclononadecino[11,12-b] quinoline-8-carboxamide] | 0.065 | 0.78 |  | 
C=C[C@@H]1C[C@]1(NC(=O)[C@@H]1C[C@@H]2CN1C(=O)[C@H](C1CCCCC1)NC(=O)O[C@@H]1C[C@H]1CCCCCc1c(nc3ccccc3c1OCCCN1CCN(C(=O)OC(C)(C)C)CC1)O2)C(=O)NS(=O)(=O)C1(C)CC1 [Example 264, tert-butyl 4-(3-{[(1aR,5S,8S,10R,22aR)-5-cyclohexyl-8-{[(1R,2S)-2-ethenyl-1-{[(1-methylcyclopropyl)sulfonyl]carbamoyl}cyclopropyl]carbamoyl}-3,6-dioxo-1,1a,3,4,5,6,9,10,18,19,20,21,22,22a-tetradecahydro-8H-7,10-methanocyclopropa[18,19][1,10,3,6]dioxadiazacyclononadecino[11,12-b]quinolin-17-yl]oxy}propyl)piperazine-1-carboxylate] |  | 7.7 | 0.037 | 1.4

From patent US9328138B2 (priority 2011, dated 2016)
